Test results taken from patent publication US4520014A (priority 1979, dated 1985).
Counter-ions that a name gives are not always drawn. Like-named read-outs stand apart in the source and are kept apart here.

Legend:
[1] = tested on: fluid secretion caused by the enterotoxin(s) present in the culture filtrate (enteropathogenic strain of E. coli); assay: animal or person; format: in vivo, Mice
E. coli P155 = format: in vivo, Piglets; settings: n = 14
[2] = tested on: diarrhoea caused by culture filtrate prepared from an enteropathogenic strain of E. coli; assay: Piglet test: inhibition of scour after oral challenge with E. coli culture filtrate; format: in vivo, Piglets; settings: scour score over 7 h, hydrochloride salt
Experimental: 2-4 Day old piglets are dosed with the compound orally 45 min prior to oral challenge with 25 ml of culture filtrate prepared from an enteropathogenic strain of E. coli. Control animals receive drug vehicle 45 min prior to challenge with a similar volume of material. Animals are observed for diarrhoea over a 7 hour period and the severity of scour scored on a 0-3 basis for each animal at hourly intervals. The percentage inhibition in treated animals is determined as: [formula]

[3] = tested on: fluid secretion caused by material prepared by cell lysis of an enteropathogenic strain of E. coli; assay: Infant rabbit test: inhibition of fluid secretion after oral challenge with E. coli cell lysis material; format: in vivo, Rabbits; settings: for % Fluid Inhibition: Rabbit, hydrochloride salt
Experimental: Infant rabbits 7-10 days old are dosed with the compound under investigation orally 45 min prior to oral challenge with 50 ml/kg bodyweight of material prepared by cell lysis of an enteropathogenic strain of E. coli. Control animals receive drug vehicle 45 mins prior to challenge with a similar volume of material. 5-7 Hours after oral administration of the challenge the animals are killed and gut weight/remaining bodyweight ratios calculated and the percentage fluid inhibition determined as above.

[4] = tested on: intestinal secretion induced by cholera toxin; settings: alleged in G. N. Mir et al. (1978); cited from earlier work
[5] = Mus musculus, po, 2 h; read-out: % Fluid Inhibition
[6] = 10 mg/kg oral, 45 min before challenge

SMILES: Cc1ccc2ccccc2c1CC1=NCCN1 [2-Methyl Naphazoline]
- inhibition in vivo at 20 mg/kg ([1]; Mus musculus, po, 2 h): 82%

SMILES: CC1(C)S[C@@H]2[C@H](NC(=O)[C@H](N)c3ccc(O)cc3)C(=O)N2[C@H]1C(=O)O [Amoxycillin]
- Mean scour score ± S.E.M. (during 6 hrs after treatment) (E. coli P155): 2.0 ± 0.2

SMILES: N=C(N)NC(=O)Cc1c(Cl)cccc1Cl [BS 100-141, 2,6-dichlorophenylacetylguanidine hydrochloride]
- inhibition in vivo at 1 mg/kg [1, 5]: 45%
- % Fluid Inhibition ([2]; 1 mg/kg oral): 76%

SMILES: Clc1cccc(Cl)c1NC1=NCCN1 [Clonidine]
- % Fluid Inhibition ([3]; 5 mg/kg oral): 26%
- inhibition in vivo at 1 mg/kg ([1]; Mus musculus, po, 2 h, read-out: % Fluid Inhibition): 42%
- % Fluid Inhibition ([2]; 0.2 mg/kg oral): 64%

SMILES: CNC(=N)NC(=O)Nc1c(C)cccc1C [Lidamidine]
- % Fluid Inhibition ([3]; 50 mg/kg oral): -7%
- activity in the rabbit test ([3]; in words): inactive
- inhibition in vivo at 50 mg/kg ([1]; Mus musculus, po, 2 h): 33%
- activity relative to the Compounds in the mouse test ([1]; mouse, in vivo): at least five times less active than the Compounds
- inhibition of intestinal secretion induced by cholera toxin [4]: inhibited intestinal secretion induced by cholera toxin

SMILES: c1ccc2c(CC3=NCCN3)cccc2c1 [Naphazoline]
- % Fluid Inhibition [3, 6]: 32%
- inhibition in vivo at 10 mg/kg ([1]; Mus musculus, po, 2 h): 59%
- % Fluid Inhibition [2, 6]: 88%

SMILES: Cc1cc(C(C)(C)C)c(O)c(C)c1CC1=NCCN1 [Oxymetazoline]
- inhibition in vivo at 0.1 mg/kg ([1]; Mus musculus, po, 2 h): 78%

SMILES: CCc1cccc(CC)c1NC1=NCCN1 [ST91]
- inhibition in vivo at 5 mg/kg ([1]; Mus musculus, po, 2 h): 56%
- inhibition in vivo at 1 mg/kg [1, 5]: 22%

SMILES: c1cc2c(c(NC3=NCCN3)c1)CCCC2 [Tramazoline]
- inhibition in vivo at 10 mg/kg ([1]; Mus musculus, po, 2 h): 44%

SMILES: Cc1cc(C(C)(C)C)cc(C)c1CC1=NCCN1 [Xylometazoline]
- % Fluid Inhibition ([3]; 20 mg/kg oral): 119%
- inhibition in vivo at 8.25 mg/kg ([1]; Mus musculus, po, 2 h): 44%
- % Fluid Inhibition ([2]; 2 mg/kg oral): 44%
